Laboratory results as given in paper PMC4893628, “Chalcone-based Selective Inhibitors of a C4 Plant Key Enzyme as Novel Potential Herbicides” (Scientific Reports, 2016).
Read-outs that look alike come from different tables or passages of the source.

Legend:
Amaranthus retroflexus = assay: In planta growth experiment, A. retroflexus; assay type: in vivo; conditions: shoots sprayed, 3 mM
How it was run: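 Single top spray of 3 mM compound (2.4% DMSO, 0.1% Tween) onto two-leaf-stage plants in a climate chamber (22/20 °C, 16 h/8 h); controls got vehicle only.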

[1] = test system: Escherichia coli K-12 MG1655; assay: Bacterial growth in microscale cultivation, E. coli; assay type: cell-based; conditions: relative to control; for activity at 8 µM / activity at 80 µM / activity at 800 µM / activity at 4 µM / activity at 40 µM / activity at 400 µM: Escherichia coli
How it was run: (§1)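 In a BioLector microscale system shaken at 1200 rpm, growth was tracked by backscatter at 620 nm, and final signal, growth rate (h⁻¹) and lag-phase length were scored against DMSO-only controls. Starting OD600 was 0.5, or 0.25 for B. subtilis. Inhibitors came from DMSO stocks, with trans-chalcone capped at 400 μM and 2'-hydroxychalcone at 100 μM.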

[2] = test system: Corynebacterium glutamicum ATCC13032; assay: Bacterial growth in microscale cultivation, C. glutamicum; assay type: cell-based; conditions: for activity at 8 µM / activity at 80 µM / activity at 400 µM / activity at 160 µM / activity at 4 µM / activity at 40 µM: Corynebacterium glutamicum; for activity at 8 µM / activity at 80 µM / activity at 400 µM / activity at 160 µM / Lag Phase / activity at 4 µM / activity at 40 µM: relative to control
How it was run: as §1

[3] = ATCC13032, complex medium, 400 µM, read-out: Final Backscatter
[4] = ATCC13032, complex medium, 400 µM, read-out: Growth rate
[5] = ATCC13032, minimal medium, 400 µM, read-out: Final Backscatter
[6] = ATCC13032, minimal medium, 400 µM, read-out: Growth rate

Which Influence on plants (Amaranthus retroflexus) does the source give for O=C(/C=C/c1ccccc1)c1ccccc1 [Compound 1, trans-Chalcone] here?
The Influence on plants was “No”.

And the activity at 8 µM ([1]; MG1655, complex medium, 8 µM, read-out: Final Backscatter)?
Its activity at 8 µM is 99%.

What about the activity at 8 µM ([1]; MG1655, complex medium, 8 µM, read-out: Growth rate) of the same molecule?
Its activity at 8 µM is 105%.

And the activity at 80 µM ([1]; MG1655, complex medium, 80 µM, read-out: Final Backscatter)?
The activity at 80 µM was 97.4%.

What about the activity at 80 µM ([1]; MG1655, complex medium, 80 µM, read-out: Growth rate) of the same molecule?
The activity at 80 µM was 109%.

And the activity at 800 µM ([1]; MG1655, complex medium, 800 µM, read-out: Final Backscatter)?
Its activity at 800 µM is 108%.

What about the activity at 800 µM ([1]; MG1655, complex medium, 800 µM, read-out: Growth rate) of the same molecule?
The activity at 800 µM was 94.7%.

What about the activity at 8 µM ([1]; MG1655, minimal medium, 8 µM, read-out: Final Backscatter) of the same molecule?
Its activity at 8 µM is 100%.

And the activity at 8 µM ([1]; MG1655, minimal medium, 8 µM, read-out: Growth rate)?
Its activity at 8 µM is 97.5%.

What about the activity at 80 µM ([1]; MG1655, minimal medium, 80 µM, read-out: Final Backscatter) of the same molecule?
Its activity at 80 µM is 95.1%.

What about the activity at 80 µM ([1]; MG1655, minimal medium, 80 µM, read-out: Growth rate) of the same molecule?
Its activity at 80 µM is 104%.

What about the activity at 800 µM ([1]; MG1655, minimal medium, 800 µM, read-out: Final Backscatter) of the same molecule?
Its activity at 800 µM is 103%.

And the activity at 800 µM ([1]; MG1655, minimal medium, 800 µM, read-out: Growth rate)?
The activity at 800 µM was 107%.

And the “Lag Phase” value ([1]; complex medium, 8 µM)?
Its value is 102,4%.

And the “Lag Phase” value ([1]; complex medium, 80 µM)?
Its value is 102,4%.

And the “Lag Phase” value ([1]; complex medium, 800 µM)?
The value was 101,2%.

And the “Lag Phase” value ([1]; minimal medium, 8 µM)?
The value was 99,1%.

And the “Lag Phase” value ([1]; minimal medium, 80 µM)?
Its value is 101,8%.

What about the “Lag Phase” value ([1]; minimal medium, 800 µM) of the same molecule?
Its value is 97,8%.

What about the activity at 8 µM ([2]; ATCC13032, complex medium, 8 µM, read-out: Final Backscatter) of the same molecule?
The activity at 8 µM was 98.7%.

What about the activity at 8 µM ([2]; ATCC13032, complex medium, 8 µM, read-out: Growth rate) of the same molecule?
The activity at 8 µM was 105%.

What about the activity at 80 µM ([2]; ATCC13032, complex medium, 80 µM, read-out: Final Backscatter) of the same molecule?
The activity at 80 µM was 104%.

And the activity at 80 µM ([2]; ATCC13032, complex medium, 80 µM, read-out: Growth rate)?
Its activity at 80 µM is 103%.

What about the activity at 400 µM [2, 3] of the same molecule?
Its activity at 400 µM is 106%.

And the activity at 400 µM [2, 4]?
The activity at 400 µM was 103%.

And the activity at 8 µM ([2]; ATCC13032, minimal medium, 8 µM, read-out: Final Backscatter)?
The activity at 8 µM was 99.7%.

What about the activity at 8 µM ([2]; ATCC13032, minimal medium, 8 µM, read-out: Growth rate) of the same molecule?
Its activity at 8 µM is 99.3%.

What about the activity at 80 µM ([2]; ATCC13032, minimal medium, 80 µM, read-out: Final Backscatter) of the same molecule?
The activity at 80 µM was 97%.

What about the activity at 80 µM ([2]; ATCC13032, minimal medium, 80 µM, read-out: Growth rate) of the same molecule?
Its activity at 80 µM is 97.1%.

And the activity at 160 µM ([2]; ATCC13032, minimal medium, 160 µM, read-out: Final Backscatter)?
The activity at 160 µM was 98.3%.

What about the activity at 160 µM ([2]; ATCC13032, minimal medium, 160 µM, read-out: Growth rate) of the same molecule?
The activity at 160 µM was 92.5%.

And the activity at 400 µM [2, 5]?
Its activity at 400 µM is 99.5%.

What about the activity at 400 µM [2, 6] of the same molecule?
Its activity at 400 µM is 87.5%.

And the “Influence on bacterial growth” value ([2]; Minimal medium, highest concentration tested (10× IC50) if not stated otherwise)?
Its value is “μ↓ (5× IC50)”.

And the “Lag Phase” value ([2]; complex medium, 8 µM)?
The value was 100,0%.

And the “Lag Phase” value ([2]; complex medium, 80 µM)?
The value was 99,5%.

And the “Lag Phase” value ([2]; complex medium, 400 µM)?
The value was 103,7%.

What about the “Lag Phase” value ([2]; minimal medium, 8 µM) of the same molecule?
The value was 100,0%.

And the “Lag Phase” value ([2]; minimal medium, 80 µM)?
Its value is 102,3%.

And the “Lag Phase” value ([2]; minimal medium, 160 µM)?
Its value is 109,9%.

And the “Lag Phase” value ([2]; minimal medium, 400 µM)?
The value was 113,6%.

O=C(/C=C/c1ccccc1O)c1ccc(O)cc1O [Compound 7, 2′,4′,2-Trihydroxychalcone] was tested. Which Influence on plants (Amaranthus retroflexus) did it give?
The Influence on plants was “No”.

What about the activity at 4 µM ([1]; MG1655, complex medium, 4 µM, read-out: Final Backscatter) of the same molecule?
Its activity at 4 µM is 97.2%.

And the activity at 4 µM ([1]; MG1655, complex medium, 4 µM, read-out: Growth rate)?
Its activity at 4 µM is 93.3%.

And the activity at 40 µM ([1]; MG1655, complex medium, 40 µM, read-out: Final Backscatter)?
The activity at 40 µM was 97.3%.

And the activity at 40 µM ([1]; MG1655, complex medium, 40 µM, read-out: Growth rate)?
The activity at 40 µM was 90.7%.

And the activity at 400 µM ([1]; MG1655, complex medium, 400 µM, read-out: Final Backscatter)?
Its activity at 400 µM is 93%.

And the activity at 400 µM ([1]; MG1655, complex medium, 400 µM, read-out: Growth rate)?
Its activity at 400 µM is 104%.

What about the activity at 4 µM ([1]; MG1655, minimal medium, 4 µM, read-out: Final Backscatter) of the same molecule?
Its activity at 4 µM is 98.2%.

And the activity at 4 µM ([1]; MG1655, minimal medium, 4 µM, read-out: Growth rate)?
Its activity at 4 µM is 99.2%.

What about the activity at 40 µM ([1]; MG1655, minimal medium, 40 µM, read-out: Final Backscatter) of the same molecule?
Its activity at 40 µM is 97.2%.

And the activity at 40 µM ([1]; MG1655, minimal medium, 40 µM, read-out: Growth rate)?
Its activity at 40 µM is 105%.

What about the activity at 400 µM ([1]; MG1655, minimal medium, 400 µM, read-out: Final Backscatter) of the same molecule?
Its activity at 400 µM is 97.4%.

What about the activity at 400 µM ([1]; MG1655, minimal medium, 400 µM, read-out: Growth rate) of the same molecule?
The activity at 400 µM was 103%.

What about the “Lag Phase” value ([1]; complex medium, 4 µM) of the same molecule?
Its value is 107,4%.

And the “Lag Phase” value ([1]; complex medium, 40 µM)?
Its value is 111,1%.

And the “Lag Phase” value ([1]; complex medium, 400 µM)?
The value was 118,5%.

What about the “Lag Phase” value ([1]; minimal medium, 4 µM) of the same molecule?
The value was 88,9%.

What about the “Lag Phase” value ([1]; minimal medium, 40 µM) of the same molecule?
Its value is 99,0%.

And the “Lag Phase” value ([1]; minimal medium, 400 µM)?
Its value is 99,3%.

What about the activity at 4 µM ([2]; ATCC13032, complex medium, 4 µM, read-out: Final Backscatter) of the same molecule?
Its activity at 4 µM is 100%.

What about the activity at 4 µM ([2]; ATCC13032, complex medium, 4 µM, read-out: Growth rate) of the same molecule?
The activity at 4 µM was 99.1%.

What about the activity at 40 µM ([2]; ATCC13032, complex medium, 40 µM, read-out: Final Backscatter) of the same molecule?
The activity at 40 µM was 98.3%.

And the activity at 40 µM ([2]; ATCC13032, complex medium, 40 µM, read-out: Growth rate)?
The activity at 40 µM was 98.8%.

What about the activity at 400 µM [2, 3] of the same molecule?
Its activity at 400 µM is 110%.

And the activity at 400 µM [2, 4]?
Its activity at 400 µM is 91.2%.

What about the activity at 4 µM ([2]; ATCC13032, minimal medium, 4 µM, read-out: Final Backscatter) of the same molecule?
Its activity at 4 µM is 98.1%.

And the activity at 4 µM ([2]; ATCC13032, minimal medium, 4 µM, read-out: Growth rate)?
Its activity at 4 µM is 102%.

And the activity at 40 µM ([2]; ATCC13032, minimal medium, 40 µM, read-out: Final Backscatter)?
Its activity at 40 µM is 101%.

What about the activity at 40 µM ([2]; ATCC13032, minimal medium, 40 µM, read-out: Growth rate) of the same molecule?
Its activity at 40 µM is 98.7%.

What about the activity at 400 µM [2, 5] of the same molecule?
The activity at 400 µM was 94.3%.

And the activity at 400 µM [2, 6]?
Its activity at 400 µM is 52.9%.

And the “Lag Phase” value ([2]; complex medium, 4 µM)?
Its value is 101,6%.

And the “Lag Phase” value ([2]; complex medium, 40 µM)?
Its value is 106,3%.

What about the “Lag Phase” value ([2]; complex medium, 400 µM) of the same molecule?
The value was 141,2%.

What about the “Lag Phase” value ([2]; minimal medium, 4 µM) of the same molecule?
Its value is 100,0%.

And the “Lag Phase” value ([2]; minimal medium, 40 µM)?
The value was 103,0%.

And the “Lag Phase” value ([2]; minimal medium, 400 µM)?
Its value is 181,9%.
